From patent EP0017102A1, “Composition containing a phenyl benzoic acid compound and acetaminophen combination for the treatment of pain and inflammation and process for preparing the same” (Merck & Co., Inc., priority 1979, dated 1980)
“And” between values parts separate entries of the source, which are not always exact repeats. Identical values can stand only once.

How the values were obtained:
[1] = test system: adjuvant arthritis induced in rats; assay: adjuvant arthritis analgesic bioassay (tail pinch / foot bend squeak response); assay type: in vivo, Sprague-Dawley rats
Excerpt: Since analgesic tests using intact animals are not sensitive enough to detect the analgesic activity of nonsteroidal anti-inflammatory compounds, the analgesic bioassay employed utilized inflammatory sensitization procedures, specifically adjuvant arthritis. Adjuvant arthritis induced in rats, the animals used in the bioassay, resembles rheumatoid arthritis in man with respect to the manifestation of inflammation and hyperalgesia. When the affected joints of rats with adjuvant arthritis are subjected to a gentle manipulation, preferably by extending the joint, the rats respond by squeaking, which is a definite and reproducible sign of algesia. The ability of the tested compounds to suppress this squeaking response was an accurate measure of the analgesic activity of the tested compounds.
In accordance with the adjuvant arthritis bioassay used to evaluate the analgesic activity of the combinations of compounds of the present invention, young adult Sprague-Dawley rats of either sex are rendered hyperalgesic by injection of dessicated Mycobacterium- butyricum suspended in light mineral oil (Freund's adjuvant). The mycobacteria are ground in a mortar, suspended in the oil, and sterilized in an autoclave. Each animal receives 0.5 mg of the bacteria in 0.1 ml of oil, injected subcutaneously through a 21-gauge needle into the distal third of the tail.
The animals can subsequently be used in two ways for testing the analgesic action of drugs. The day after the injection of adjuvant, the tail is found to be sensitive to touch. Approximately 16 hours after the injection, the experimenter tests the animals for the presence of hyperalgesia. This is done by holding the animal in one hand. With the thumb and forefinger of the other hand, the observer applies gentle pressure to the tail about 2.5 cm proximal to the point where the needle has been inserted. This gentle pressure is repeated at 5-sec intervals. If the rat endures five such gentle presses without emitting more than one "squeak", analgesia is considered to be present and a score of + is assigned. Two or more squeaks earns a rating of 0, or no analgesia. Before being assigned to an experiment, animals are screened and only those with the 0 rating are used.
The hyperalgesic animals are assigned randomly to drug treatments and one of the treatments is always the vehicle without the drug (placebo group). […] […] This entire procedure may be referred to as "tail pinch" .technique. Alternatively, an apparatus for applying pressure to the tail may be employed and the "squeak threshold" determined before and after drug.
The adjuvant-injected animals, if left undisturbed, develop severe arthritis which becomes especially manifest in about two weeks. […] This "foot bend" technique yields drug responses essentially identical with those obtained by the "tail pinch" procedure.
For a further description of this bioassay and its significance, reference is made to Kuzuma and Kawai, "Evaluation of Analgesic Agents in Rats with Adjuvant Arthritis", Chem. Pharm. Bull., 23 (6) 1184-1191 (1975).

in vivo = assay type: in vivo, mice; settings: mouse, in vivo, po
Method: (§1) Measurements of the relative safety of the components and of the combination were carried out using acute oral toxicity studies in female mice. Randomly selected female albino mice (Carworth CF-1) weighing from 18 to 24 grams, and 6 to 7 weeks old, were used. The LD50 value for each drug was estimated from acute oral dose-response curves previously established. The following dose regimen was utilized:
(§2) The preparations were administered by gastric intubation using a metal catheter attached to a springe. The various doses were administered randomly with 20 mice per group. Food was withheld one to two hours before and three hours following drug treatment. Water was available at all times. […] Body weights were taken pretest and on days 7 and 14.

[2] = test system: female albino mice (Carworth CF-1); assay: in vivo; assay type: in vivo; settings: Group V: Acetaminophen 1500 mg./kg. (100 %LD50) alone; oral; 20 tested; 14 days
Method: as §1, §2

[3] = test system: adjuvant arthritis induced in rats; settings: compounds known to be clinically active; cited from earlier work

Q: Which results are given for CC(=O)Nc1ccc(O)cc1 [APAP, acetaminophen]?
A: Number of Rats with Analgesia ([1]; 1/2 h after administration, dose 200 mg./kg., 8 rats per dose): 2; Percent of Rats with Analgesia APAP Alone ([1]; 1 Hrs. after drug, APAP 25 mg./kg., 10 rats per dose): 10%; Percent of Rats with Analgesia APAP Alone ([1]; 1 Hrs. after drug, APAP 200 mg./kg., 8 rats per dose): 25% and 37.5%; Percent of Rats with Analgesia APAP Alone ([1]; 2 Hrs. after drug, APAP 50 mg./kg., 10 rats per dose): 0%; Percent of Rats with Analgesia APAP Alone ([1]; 3 Hrs. after drug, APAP 100 mg./kg., 8 rats per dose): 0%; Percent of Rats with Analgesia APAP Alone ([1]; 3 Hrs. after drug, APAP 100 mg./kg., 10 rats per dose): 0%; Percent of Rats with Analgesia APAP Alone ([1]; 4 Hrs. after drug, APAP 25 mg./kg., 10 rats per dose): 0%; Percent of Rats with Analgesia APAP Alone ([1]; 4 Hrs. after drug, APAP 50 mg./kg., 10 rats per dose): 0%; Percent of Rats with Analgesia APAP Alone ([1]; 4 Hrs. after drug, APAP 100 mg./kg., 8 rats per dose): 0%; Percent of Rats with Analgesia APAP Alone ([1]; 4 Hrs. after drug, APAP 100 mg./kg., 10 rats per dose): 0%; Percent of Rats with Analgesia APAP Alone ([1]; 5 Hrs. after drug, APAP 100 mg./kg., 8 rats per dose): 0%; Percent of Rats with Analgesia APAP Alone ([1]; 5 Hrs. after drug, APAP 200 mg./kg., 8 rats per dose): 25%; Number of Rats with Analgesia ([1]; 1 h after administration, dose 25 mg./kg., 10 rats per dose): 1; Number of Rats with Analgesia ([1]; 1 h after administration, dose 50 mg./kg., 10 rats per dose): 1; Number of Rats with Analgesia ([1]; 1 h after administration, dose 100 mg./kg., 10 rats per dose): 3; Number of Rats with Analgesia ([1]; 1 h after administration, dose 200 mg./kg., 8 rats per dose): 2 and 3; Number of Rats with Analgesia ([1]; 1 h after administration, dose 400 mg./kg., 8 rats per dose): 6 and 4; Number of Rats with Analgesia ([1]; 2 h after administration, dose 25 mg./kg., 10 rats per dose): 0; Number of Rats with Analgesia ([1]; 2 h after administration, dose 50 mg./kg., 10 rats per dose): 0; Number of Rats with Analgesia ([1]; 2 h after administration, dose 100 mg./kg., 8 rats per dose): 1; Number of Rats with Analgesia ([1]; 2 h after administration, dose 100 mg./kg., 10 rats per dose): 2; Number of Rats with Analgesia ([1]; 2 h after administration, dose 200 mg./kg., 8 rats per dose): 4 and 3; Number of Rats with Analgesia ([1]; 2 h after administration, dose 400 mg./kg., 8 rats per dose): 7; Number of Rats with Analgesia ([1]; 3 h after administration, dose 25 mg./kg., 10 rats per dose): 0; Number of Rats with Analgesia ([1]; 3 h after administration, dose 50 mg./kg., 10 rats per dose): 0; Number of Rats with Analgesia ([1]; 3 h after administration, dose 100 mg./kg., 10 rats per dose): 0; Number of Rats with Analgesia ([1]; 3 h after administration, dose 200 mg./kg., 8 rats per dose): 4; Number of Rats with Analgesia ([1]; 3 h after administration, dose 400 mg./kg., 8 rats per dose): 6; Number of Rats with Analgesia ([1]; 4 h after administration, dose 25 mg./kg., 10 rats per dose): 0; Number of Rats with Analgesia ([1]; 4 h after administration, dose 50 mg./kg., 10 rats per dose): 0; Number of Rats with Analgesia ([1]; 4 h after administration, dose 100 mg./kg., 8 rats per dose): 0; Number of Rats with Analgesia ([1]; 4 h after administration, dose 100 mg./kg., 10 rats per dose): 0; Number of Rats with Analgesia ([1]; 4 h after administration, dose 200 mg./kg., 8 rats per dose): 4; Number of Rats with Analgesia ([1]; 4 h after administration, dose 400 mg./kg., 8 rats per dose): 5 and 4; Number of Rats with Analgesia ([1]; 5 h after administration, dose 25 mg./kg., 10 rats per dose): 0; Number of Rats with Analgesia ([1]; 5 h after administration, dose 50 mg./kg., 10 rats per dose): 0; Number of Rats with Analgesia ([1]; 5 h after administration, dose 100 mg./kg., 8 rats per dose): 0; Number of Rats with Analgesia ([1]; 5 h after administration, dose 100 mg./kg., 10 rats per dose): 0; Number of Rats with Analgesia ([1]; 5 h after administration, dose 200 mg./kg., 8 rats per dose): 2 and 1; Number of Rats with Analgesia ([1]; 5 h after administration, dose 400 mg./kg., 8 rats per dose): 2 and 3; Number of Rats with Analgesia ([1]; 6 h after administration, dose 25 mg./kg., 10 rats per dose): 0; Number of Rats with Analgesia ([1]; 6 h after administration, dose 50 mg./kg., 10 rats per dose): 0; Number of Rats with Analgesia ([1]; 6 h after administration, dose 100 mg./kg., 8 rats per dose): 0; Number of Rats with Analgesia ([1]; 6 h after administration, dose 100 mg./kg., 10 rats per dose): 0; Number of Rats with Analgesia ([1]; 6 h after administration, dose 400 mg./kg., 8 rats per dose): 1; Total Positives ([1]; sum over 1/2, 1 and 2 h, dose 200 mg./kg., 8 rats per dose): 7; Total Positives ([1]; sum over 1 and 2 h, dose 100 mg./kg., 10 rats per dose): 5; LD50 (in vivo): 1500 mg/kg; No. Dead [2]: 16

Q: Which “results in the adjuvant arthritis analgesic bioassay” value (shortened to “results”) [3] does the source give for CC(=O)Oc1ccccc1C(=O)O [aspirin] here?
A: The value was “positive, dose-dependent, reproducible results”.

Q: With CC(C)Cc1ccc(CC(=O)O)cc1 [ibufenac] as the molecule, how does the “results” value [3] read?
A: The value was “positive, dose-dependent, reproducible results”.

Q: With COc1ccc2c(c1)c(CC(=O)O)c(C)n2C(=O)c1ccc(Cl)cc1 [indomethacin] as the molecule, how does the “results” value [3] read?
A: The value was “positive, dose-dependent, reproducible results”.
